Read-outs that look alike come from different tables or passages of the source.
Key:
Format in all cases: in vivo
[1] = test system: barnyardgrass (Echinochloa crus-galli); assay: Test A pre-/postemergence: barnyardgrass; conditions: Echinochloa crus-galli, 240 h; for pest or weed control at 125 g/ha: 125 g ai/ha; for pest or weed control at 500 g/ha: 500 g ai/ha
How it was run: (§1)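 Pre: directed soil spray after planting in loam + sand. Post: same formulation (non-phytotoxic solvent + surfactant) on 1–2-leaf plants, 2–10 cm. Greenhouse ~10 d; visual injury 0–100 vs untreated.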

[2] = test system: crabgrass, large (large crabgrass, Digitaria sanguinalis); assay: Test A pre-/postemergence: crabgrass, large; conditions: Digitaria sanguinalis, 240 h; for pest or weed control at 125 g/ha: 125 g ai/ha; for pest or weed control at 500 g/ha: 500 g ai/ha
How it was run: as §1

[3] = test system: foxtail, giant (giant foxtail, Setaria faberii); assay: Test A pre-/postemergence: foxtail, giant; conditions: Setaria faberi, 240 h; for pest or weed control at 125 g/ha: 125 g ai/ha; for pest or weed control at 500 g/ha: 500 g ai/ha
How it was run: as §1

[4] = test system: morningglory (Ipomoea spp.); assay: Test A pre-/postemergence: morningglory; conditions: Ipomoea, 240 h; for pest or weed control at 125 g/ha: 125 g ai/ha; for pest or weed control at 500 g/ha: 500 g ai/ha
How it was run: as §1

[5] = test system: velvetleaf (Abutilon theophrasti); assay: Test A pre-/postemergence: velvetleaf; conditions: Abutilon theophrasti, 240 h; for pest or weed control at 125 g/ha: 125 g ai/ha; for pest or weed control at 500 g/ha: 500 g ai/ha
How it was run: as §1

[6] = test system: ryegrass, Italian (Italian ryegrass, Lolium multiflorum); assay: Test C pre-/postemergence: ryegrass, Italian
How it was run: (§2)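 Preemergence on seeds in loam/sand, postemergence on 2–18 cm (1–4-leaf) plants in peat-based medium; compounds in non-phytotoxic solvent with surfactant. After 13–15 days in greenhouse, visual rating versus controls, 0 (no effect) to 100 (complete control).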

wild oat (Avena fatua) = assay: Test C pre-/postemergence: wild oat
How it was run: as §2

[7] = test system: galium (catchweed bedstraw, Galium aparine); assay: Test C pre-/postemergence: galium
How it was run: as §2

[8] = test system: large crabgrass (Digitaria sanguinalis); assay: Test C pre-/postemergence: large crabgrass
How it was run: as §2

[9] = test system: nutsedge, yellow (yellow nutsedge, Cyperus esculentus); assay: Test C pre-/postemergence: nutsedge, yellow
How it was run: as §2

[10] = test system: chickweed (common chickweed, Stellaria media); assay: Test C postemergence: chickweed
How it was run: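 Pot-grown plants in peat/vermiculite medium sprayed postemergence at 2–18 cm height (1- to 4-leaf stage). Kept in greenhouse 13 to 15 days, then visually rated against untreated controls on a 0–100 scale (0 = no effect, 100 = complete control).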

[11] = Postemergence, 31 g ai/ha, scale 0 to 100 (0 no effect, 100 complete control)
[12] = Postemergence, 62 g ai/ha, scale 0 to 100 (0 no effect, 100 complete control)
[13] = Postemergence, 125 g ai/ha, scale 0 to 100, 0 no effect, 100 complete control
[14] = Postemergence, 250 g ai/ha, scale 0 to 100 (0 no effect, 100 complete control)
[15] = Preemergence, 31 g ai/ha, scale 0 (no effect) to 100 (complete control)
[16] = Preemergence, 62 g ai/ha, scale 0 to 100, 0 no effect, 100 complete control
[17] = Preemergence, 125 g ai/ha, scale 0 to 100, 0 no effect, 100 complete control
[18] = Preemergence, 250 g ai/ha, scale 0 to 100, 0 no effect, 100 complete control

CCOc1nn(-c2ccc(F)cc2)nc1Cc1ccnc(C(F)(F)F)c1 [Compound 196, 4-[[5-ethoxy-2-(4-fluorophenyl)-2H-1,2,3-triazol-4-yl]methyl]-2-(trifluoromethyl)pyridine]
60%: pest or weed control at 125 g/ha ([4]; pre-emergence, Preemergence, 0 to 100 scale where 0 is no effect and 100 is complete control, read-out: Plant response rating, Morningglory)
95: Plant response rating, Galium [7, 14] | Plant response rating, Galium [7, 16] | Plant response rating, Crabgrass, Large ([8]; Postemergence, 250 g ai/ha, scale 0 to 100)
20: Plant response rating, Nutsedge, Yellow [9, 14]
5: Plant response rating, Nutsedge, Yellow [9, 17]
100: Plant response rating, Galium [7, 18] | Plant response rating, Crabgrass, Large [8, 15] | Plant response rating, Crabgrass, Large [8, 16] | Plant response rating, Crabgrass, Large [8, 17] | Plant response rating, Crabgrass, Large [8, 18] | Plant response rating, Chickweed ([10]; 125 g ai/ha, scale 0 to 100, 0 no effect, 100 complete control) | Plant response rating, Chickweed ([10]; 250 g ai/ha, scale 0 to 100)
90%: pest or weed control at 500 g/ha ([1]; post-emergence, Postemergence, 0 to 100 scale, 0 is no effect, 100 is complete control, read-out: Barnyardgrass plant response rating) | pest or weed control at 125 g/ha ([2]; post-emergence, Postemergence, 0 to 100 scale, 0 is no effect, 100 is complete control, read-out: Plant response rating, Crabgrass, Large) | pest or weed control at 500 g/ha ([2]; post-emergence, Postemergence, 0 to 100 scale, 0 is no effect, 100 is complete control, read-out: Crabgrass, Large plant response rating) | pest or weed control at 125 g/ha ([3]; post-emergence, Postemergence, 0 to 100 scale, 0 is no effect, 100 is complete control, read-out: Plant response rating, Foxtail, Giant) | pest or weed control at 500 g/ha ([3]; post-emergence, Postemergence, 0 to 100 scale, 0 is no effect, 100 is complete control, read-out: Foxtail, Giant plant response rating) | pest or weed control at 500 g/ha ([4]; pre-emergence, Preemergence, 0 to 100 scale (0 no effect, 100 complete control), read-out: Plant response rating, Morningglory)
100%: pest or weed control at 125 g/ha ([1]; pre-emergence, Preemergence, 0 to 100 scale where 0 is no effect and 100 is complete control, read-out: Plant response rating, Barnyardgrass) | pest or weed control at 500 g/ha ([1]; pre-emergence, Preemergence, 0 to 100 scale (0 no effect, 100 complete control), read-out: Plant response rating, Barnyardgrass) | pest or weed control at 125 g/ha ([2]; pre-emergence, Preemergence, 0 to 100 scale where 0 is no effect and 100 is complete control, read-out: Plant response rating, Crabgrass, Large) | pest or weed control at 500 g/ha ([2]; pre-emergence, Preemergence, 0 to 100 scale (0 no effect, 100 complete control), read-out: Plant response rating, Crabgrass, Large) | pest or weed control at 125 g/ha ([3]; pre-emergence, Preemergence, 0 to 100 scale where 0 is no effect and 100 is complete control, read-out: Plant response rating, Foxtail, Giant) | pest or weed control at 500 g/ha ([3]; pre-emergence, Preemergence, 0 to 100 scale (0 no effect, 100 complete control), read-out: Plant response rating, Foxtail, Giant) | pest or weed control at 125 g/ha ([4]; post-emergence, Postemergence, 0 to 100 scale, 0 is no effect, 100 is complete control, read-out: Plant response rating, Morningglory) | pest or weed control at 500 g/ha ([4]; post-emergence, Postemergence, 0 to 100 scale, 0 is no effect, 100 is complete control, read-out: Morningglory plant response rating) | pest or weed control at 125 g/ha ([5]; post-emergence, Postemergence, 0 to 100 scale, 0 is no effect, 100 is complete control, read-out: Plant response rating, Velvetleaf) | pest or weed control at 500 g/ha ([5]; post-emergence, Postemergence, 0 to 100 scale, 0 is no effect, 100 is complete control, read-out: Velvetleaf plant response rating) | pest or weed control at 500 g/ha ([5]; pre-emergence, Preemergence, 0 to 100 scale (0 no effect, 100 complete control), read-out: Plant response rating, Velvetleaf)
80%: pest or weed control at 125 g/ha ([1]; post-emergence, Postemergence, 0 to 100 scale, 0 is no effect, 100 is complete control, read-out: Plant response rating, Barnyardgrass) | pest or weed control at 125 g/ha ([5]; pre-emergence, Preemergence, 0 to 100 scale where 0 is no effect and 100 is complete control, read-out: Plant response rating, Velvetleaf)
35: Plant response rating, Ryegrass, Italian [6, 11]
55: Plant response rating, Oat, Wild (wild oat (Avena fatua); [11])
60: Plant response rating, Ryegrass, Italian [6, 12]
0: Plant response rating, Nutsedge, Yellow [9, 15] | Plant response rating, Nutsedge, Yellow [9, 16]
98: Plant response rating, Galium [7, 17] | Plant response rating, Chickweed ([10]; 31 g ai/ha, scale 0 to 100 (0 no effect, 100 complete control)) | Plant response rating, Chickweed ([10]; 62 g ai/ha, scale 0 to 100 (0 no effect, 100 complete control))
85: Plant response rating, Ryegrass, Italian [6, 13] | Plant response rating, Ryegrass, Italian [6, 14] | Plant response rating, Oat, Wild (wild oat (Avena fatua); [12]) | Plant response rating, Oat, Wild (wild oat (Avena fatua); [13]) | Plant response rating, Galium [7, 12] | Plant response rating, Galium [7, 15] | Plant response rating, Crabgrass, Large [8, 12] | Plant response rating, Crabgrass, Large [8, 13]
80: Plant response rating, Ryegrass, Italian [6, 15] | Plant response rating, Oat, Wild (wild oat (Avena fatua); [15]) | Plant response rating, Galium [7, 11] | Plant response rating, Crabgrass, Large [8, 11]
10: Plant response rating, Nutsedge, Yellow [9, 11] | Plant response rating, Nutsedge, Yellow [9, 12] | Plant response rating, Nutsedge, Yellow [9, 18]
90: Plant response rating, Ryegrass, Italian [6, 16] | Plant response rating, Ryegrass, Italian [6, 17] | Plant response rating, Ryegrass, Italian [6, 18] | Plant response rating, Oat, Wild (wild oat (Avena fatua); [14]) | Plant response rating, Oat, Wild (wild oat (Avena fatua); [16]) | Plant response rating, Oat, Wild (wild oat (Avena fatua); [17]) | Plant response rating, Oat, Wild (wild oat (Avena fatua); [18]) | Plant response rating, Galium [7, 13]
15: Plant response rating, Nutsedge, Yellow [9, 13]
